Experimental data taken from patent publication US11001795B2, “In vitro gastrointestinal model comprising lamina propria-derived cells” (EMULATE, Inc., priority 2016, dated 2021).
Entries after “also recorded” stand apart in the source; their conditions may differ.

Legend:
[1] = test system: Caco-2/HUVEC/LPDC microfluidic co-cultures; experiment: Cytokine and chemokine production in microfluidic co-cultures with LP derived cells; type: cell-based, human
Experimental: An exemplary bacteria antigen used was PAM2CSK4. […] PAM2CSK4 refers to a synthetic diacylated lipopeptide.
In order to determine contributory factors to the trends in permeability changes observed by combinations of prednisone treatments as in Example 5, cytokine and chemokine production were measured from media samples obtained from the microfluidic cultures as described in Example 5. After an incubation time, media samples were extracted from the microfluidic device then used for determining amounts of cytokine and chemokine produced, such as IL-6 and IL-9 in FIG. 18A-B; IL-8 and G-CSF in FIG. 19A-B; GM-CSF and MCP-1 in FIG. 20A-B: MIP1b and PDGF-AB/BB in FIG. 21A-B; and RANTES in FIG. 22. Amounts of cytokine and chemokine protein are measure in pg/ml (picogram per milliliter).

[2] = test system: Ulcerative Colitis patients; settings: cited from earlier work
[3] = test system: Caco-2 epithelial cell layer; type: cell-based, human
Excerpt: See an exemplary permeability assay method in Example 4.
Effects of resident leukocytes isolated from LP

[4] = test system: TH1 and TH9 CD4+ T cell populations; experiment: Bacterial antigen stimulation of TH1 and TH9 populations on cell culture plates; type: cell-based, human
Experimental: Purified human CD4+ cells in tissue culture media, comprising soluble anti-human CD28 mAb (e.g. PharMingen, San Diego, Calif.), were added to CD3 coated plastic tissue culture plates for non-antigen-specific activation. Co-stimulation of the CD3 transmembrane signaling complex and the T cell CD28 molecule results in nonantigen specific stimulation of the TCR (CD3). After three days of incubation, the default T cell population is considered a TH1 population. After three days of co-stimulation, with or without added cytokines, cells are pipetted out of the plates, the plates are washed with media or PBS to remove any remaining cells, then harvested cells are washed at least 3 times to remove cell fragments and culture reagents, prior to use of the activated T cell population for seeding microfluidic chips on Day 0 of the chip timeline.
In this example, a TH1 cell population was produced from a population of CD4+ T cells obtained from a sample of PBMCs. This population of CD4+ T cells were co-stimulated with soluble CD3 and CD28 antibodies without added cytokine stimulation for inducing differentiation of TH1 cells. Unlike the co-stimulation with soluble CD3 and CD28 antibodies in the presence of TGFB, IL-4, and IFNg cytokines for inducing differentiation of TH9 cells as described herein.
A sample of each TH cell type was exposed to PAM2CSK4, then log 2 fold changes in protein expression of either pathway molecules or IL-9 were measured and compared to duplicate samples not treated with PAM2CSK4.

[5] = test system: Intestine On-Chip with TH1 or TH9 cells; experiment: Cytokine production in Intestine On-Chip seeded with plate-differentiated TH1 or TH9 cells; type: cell-based, human; settings: for IL-10: TH9 populations; for IL-6 protein: untreated vs PAM2CSK4 treated with and without Tofacitinib
Excerpt: In this example, a TH1 cell population was produced from a population of mature/naive CD4+ T cells, as described in Example 7. This population of CD4+ T cells were co-stimulated with adhered CD3 and soluble CD28 antibodies, without added cytokines, for inducing differentiation of TH1 cells on plates. Unlike co-stimulation with adhered CD3 and soluble CD28 antibodies in the presence of TGFB, IL-4, and IFNg cytokines which induced differentiation of TH9 cells, as described herein. Thus, in this example, purified CD4+ T cell populations were plated into tissue culture plates for activation and differentiation into one selected T cell subtype, e.g. TH1 in one plate, and TH9 in another plate.
In order to further test whether PBMCs activated and differentiated with soluble factors were capable of inducing inflammation on chips, pro-inflammatory cytokine production was compared between untreated, PAM2CSK4 treated with and without Tofacitinib.
Experiments were designed to evaluate whether anti-CD3 and anti-CD28 co-stimulatory activation (soluble reagents) on chip would stimulate on chip T cells (previously activated and differentiated on plates) to continue functioning as activated effector cells within the chip tissue microenvironment. Further, TH1 and TH9 T cell populations underwent testing for an exacerbated response (either tissue alterations or changes in the characteristics of the T cell population) to a specific antigen stimulation, e.g. PAM2CSK4 (TLR2) bacterial agonist, with or without additional co-stimulation (i.e. using soluble reagents). Stimulation on-chip was done as a treatment on Day 7 of culture.
Evaluation of the effects of T-cell activation on the Intestine On-Chip by perfusion of soluble immune activating factors (anti-CD3 and anti-CD28) to the media is shown in FIGS. 36A-B-39A-C. In particular, activated T-cell subsets were evaluated for disease-specific cytokine production.
T cell subsets were purified from PBMCs as described herein, then stimulated in tissue culture plates using plate bound CD3 and soluble CD28 antibodies.

[6] = test system: UC patient's resident immune cells; experiment: 24 hour bacterial challenge of resident immune cells cultured on-plates, secreted cytokines; type: cell-based, human; settings: immune cells from inflamed UC tissue, 24 hour challenge
[7] = prednisone alone, non-inflamed LPDC
[8] = prednisone, inflamed LPDCs, with and without PAM2CSK4
[9] = prednisone, non-inflamed and inflamed LPDCs treated with PAM2CSK4

Excerpt for Caco-2 epithelial layer: The following exemplary protocol outlines the sterilization/functionalization, coating, media wash, and cell seeding steps for preparing the Intestine-on-Chip with epithelial cells, e.g. Caco-, human primary epithelial cells, etc., HUVECs, and resident immune cells from lamina propria-derived cells.
An exemplary experimental chip culture schedule is presented as a timeline starting from Day 0 (seeding chips) by adding HUVEC cells and lamina propria-derived cells; Day 1 was seeding a top layer of epithelial cells and connecting to a flow system; by Day 7 treatments, such as adding PAM2CSK4; and starting Day 8 testing layers and/or removing samples for further analysis. A sample such as effluent was tested for cytokine section from cells. Other samples removed were histological samples for fixation and ICC (immunocytochemistry) such as for determining cellular appearance, determination of tight junction integrity, such as by staining for actin, ZO-1, intracellular cytokine co-localization, etc, and physiological testing, such as migration of particles through the extracellular regions of the epidermal layer. Additional tests may include RNA isolation for determining gene expression levels, such as for proteins involved with tight junction formation, cytokine expression, etc.
The chips treated with PAM2CSK4 as a model bacterial antigen are considered infected chips. […]

Compound: C[C@]12C=CC(=O)C=C1CC[C@@H]1[C@@H]2C(=O)C[C@@]2(C)[C@H]1CC[C@]2(O)C(=O)CO [prednisone]
- PDGF-AA/BB production ([1]; prednisone alone): did not appear to be a reduction in PDGF-AA/BB
- IL-8 production ([1]; prednisone alone or PAM2CSK4, non-inflamed LPDC): did not appear to be a reduction in IL-8
- GM-CSF production [1, 7]: did not appear to be a reduction in GM-CSF
- MCP-1 production [1, 7]: did not appear to be a reduction in MCP-1
- GM-CSF production [1, 8]: reduced GM-CSF production
- IL-8 production [1, 8]: trend for reducing IL-8 production
- MCP-1 production [1, 8]: reduced MCP-1 production
- IL-6 production ([1]; prednisone, inflamed UC LPDC, endogenous or PAM2CSK4 induced): reduce IL-6 production
- IL-6 production ([1]; prednisone, non-inflamed LPDCs): does not appear to have an effect
- PDGF-AA/BB production ([1]; prednisone, non-inflamed LPDCs (printed in the MIP-1b section)): trend for reducing PDGF-AA/BB production
- MIP-1b production ([1]; prednisone, non-inflamed and inflamed LPDCs (stated in heading only)): Tends to Reduce MIP-1b Production
- PDGF-AA/BB production [1, 9]: trend for reducing PDGF-AA/BB production
- RANTES production [1, 9]: trend for reducing RANTES production
- IL-9 production ([1]; prednisone, non-inflamed and inflamed UC LPDC, regardless of PAM2CSK4): production is reduced; also recorded: significantly reduced
- G-CSF production ([1]; prednisone, non-inflamed or inflamed LPDCs, with and without PAM2CSK4): trend for reducing G-CSF production
- Inflammatory responses (secreted cytokines) to PAM2CSK4 treatment ([1]; prophylactic prednisone on-chip, noninflamed and inflamed UC resident immune cells): suppresses the inflammatory responses
- Treated patients non-responsive ([2]; Ulcerative Colitis patients): around 16%
- Treated patients with full remission ([2]; Ulcerative Colitis patients): 54%
- Treated patients with partial remission ([2]; Ulcerative Colitis patients): 30%
- Undesirable Side Effects ([2]; in vivo): increased Risk of infection, Weight gain, Hyperglycemia, Hypertension, Bone loss

Compound: PAM2CSK4
- Permeability of Caco-2 epithelial cell layer [3]: increase in permeability
- Loss of barrier function ([3]; PAM2CSK4 treatment, overnight incubation, 4 LP mil/ml): Loss of barrier function is shown
- IL-9 production, apical ([1]; PAM2CSK4, 1 and 2 LP mil/ml): increased
- IL-9 production, basal ([1]; PAM2CSK4, 4 LP mil/ml): higher level of IL-9 production
- IL-9 production ([1]; PAM2CSK4, LP leukocyte co-cultures for each source): induce IL-9
- IL6 response ([1]; PAM2CSK4, epithelial cells without LP): induce an IL6 response
- IL6 response ([1]; PAM2CSK4, healthy LP leukocyte co-cultures): induce an IL6 response
- IL-6 production ([1]; PAM2CSK4, inflamed LPDC samples): increased IL-6 production
- IL-6 production ([1]; PAM2CSK4, non-inflamed LPDC samples): does not appear to have an effect
- IL-9 production ([1]; PAM2CSK4, non-inflamed and inflamed UC LPDC co-cultures, over endogenous levels): significantly induced IL-9 production
- IL-6 production ([1]; PAM2CSK4 at 1, 2 and 4 LP mil/ml vs co-cultures with no PAM2CSK4): higher level of IL-6 production
- Concentration of cytokine protein signaling ([4]; PAM2CSK4, TH1 (CD) and TH9 (UC) cells on-plates): increases in the concentration of cytokine protein signaling
- IL-9 ([4]; PAM2CSK4 stimulation, TH1 populations): measurable; also recorded: did significantly increase
- IRF4 ([4]; PAM2CSK4 stimulation, TH1 populations, log 2 fold change): measurable
- IL-9, or IL-9 activation factors, log 2 fold changes ([4]; PAM2CSK4 stimulation, TH9 populations in tissue culture plate): did not significantly increase
- IL-10 ([5]; unstimulated vs Pam stimulated): no insignificant differences
- IL-8 ([5]; antigen specific stimulation (PAM2CSK4) on-chip): increased
- IL-6 protein [5]: no significant differences
- Response (secreted cytokines) to PAM2CSK4 [6]: stronger response
- Avg. Z Height (z-arrow) of Caco-2 epithelial layer (Caco-2 epithelial layer): 84 um+/−11

Compound: Tofacitinib (citrate)
- IL-10 ([5]; mixture of PAM2CSK4 and Tofacitinib vs unstimulated cells): induced significant amounts
- IL-6 protein [5]: no significant differences
